Experiments:
[1] = molecular target: T1, wt human TYK2, catalytic site (Homo sapiens, UniProt P29597); test: HTRF KinEASE assay, TYK2; assay type: biochemical; settings: 1 μM ATP; read-out: IC50, Activity Toward TYK2
T1 construct: wt human TYK2, catalytic site; purchased SignalChem
T1 sequence (P29597 897-1176 limits assumed): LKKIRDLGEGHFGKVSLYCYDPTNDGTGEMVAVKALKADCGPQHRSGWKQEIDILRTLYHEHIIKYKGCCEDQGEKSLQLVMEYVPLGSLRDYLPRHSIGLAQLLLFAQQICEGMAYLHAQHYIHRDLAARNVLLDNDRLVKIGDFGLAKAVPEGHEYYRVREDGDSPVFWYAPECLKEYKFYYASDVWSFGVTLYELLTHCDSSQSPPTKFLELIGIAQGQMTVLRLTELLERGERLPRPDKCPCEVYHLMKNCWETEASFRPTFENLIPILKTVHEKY
Protocol: (§1) Basic protocol for HTRF KinEASE assay (Cisbio/FRA) inhibitor studies involved two steps: • Enzymatic step: Addition of 4 μL of test compound in corresponding DMSO dilutions, 4 μL of kinase/substrate mixture, 2 μL of ATP into 384 well small volume plates. Incubation for at least 30 minutes at room temperature. • Detection step: Addition of 5 μL antibody and 5 μL streptavidin-XL665, read plate after 60 minutes. Data analysis of emission ratios according KinEASE assay protocol.
(§2) Kinase and assay components were adjusted to final concentrations according to kit protocol. For TYK2: 2 nM wt human TYK2, catalytic site (SignalChem/CAN), 1 μM HTRF KinEASE-TK Substrate-biotin, 1 μM ATP in 1× Kinase Buffer. For JAK1: 4 nM wt human JAK1, catalytic site (ThermoFisher/USA), 1 μM HTRF KinEASE-TK Substrate-biotin, 2.5 μM ATP in 1× Kinase Buffer. For JAK2: 1 nM wt human JAK2, catalytic site (SignalChem/CAN), 1 μM HTRF KinEASE-TK Substrate-biotin, 100 μM ATP in 1× Kinase Buffer.
as §2

[2] = molecular target: T2, wt human JAK1, catalytic site (Homo sapiens, UniProt P23458); test: HTRF KinEASE assay, JAK1; assay type: biochemical; settings: 2.5 μM ATP; read-out: IC50, Activity Toward JAK1
T2 construct: wt human JAK1, catalytic site; purchased ThermoFisher
Protocol: as §1
as §2, with “For JAK1: 4 nM wt human JAK1, catalytic site (ThermoFisher/USA), 1 μM HTRF KinEASE-TK Substrate-biotin, 2.5 μM ATP in 1× Kinase Buffer.” left out
as §2, with “For JAK1: 4 nM wt human JAK1, catalytic site (ThermoFisher/USA), 1 μM HTRF KinEASE-TK Substrate-biotin, 2.5 μM ATP in 1× Kinase Buffer.” left out

T2 sequence (P23458 875-1153 limits assumed): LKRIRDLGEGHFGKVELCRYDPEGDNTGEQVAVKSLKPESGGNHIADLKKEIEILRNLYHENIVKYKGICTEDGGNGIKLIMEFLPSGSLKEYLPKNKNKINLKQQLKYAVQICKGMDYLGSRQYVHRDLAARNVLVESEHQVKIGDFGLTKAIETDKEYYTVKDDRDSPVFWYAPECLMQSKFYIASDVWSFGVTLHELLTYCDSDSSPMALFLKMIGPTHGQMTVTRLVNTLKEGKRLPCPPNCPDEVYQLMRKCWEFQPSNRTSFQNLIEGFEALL

`Cc1ccn(-c2ccc(Nc3cn(-c4c(Cl)cccc4Cl)nc3C(N)=O)cc2)n1` [compound 75, 1-(2,6-dichlorophenyl)-4-((4-(3-methyl-1H-pyrazol-1-yl)phenyl)amino)-1H-pyrazole-3-carboxamide] showed an IC50 [1] of 100 to 1000 nM and an IC50 [2] of 100 to 1000 nM.
Compound `Cn1ccc(=O)n1-c1ccc(Nc2cn(-c3c(Cl)cccc3Cl)nc2C(N)=O)cc1` [compound 77, 1-(2,6-dichlorophenyl)-4-((4-(2-methyl-5-oxo-2,5-dihydro-1H-pyrazol-1-yl)phenyl)amino)-1H-pyrazole-3-carboxamide] has an IC50 [1] of 100 to 1000 nM and an IC50 [2] of 100 to 1000 nM.
Compound `Cn1ccc(Oc2ccc(Nc3cn(-c4c(Cl)cccc4Cl)nc3C(N)=O)cc2)n1` [compound 78, 1-(2,6-dichlorophenyl)-4-((4-((1-methyl-1H-pyrazol-3-yl)oxy)phenyl)amino)-1H-pyrazole-3-carboxamide] has an IC50 [1] of 10 to 100 nM and an IC50 [2] of 100 to 1000 nM.
With `NC(=O)c1nn(-c2c(Cl)cccc2Cl)cc1Nc1ccc(-n2cnc(Cl)n2)cc1` [compound 79, 4-((4-(3-chloro-1H-1,2,4-triazol-1-yl)phenyl)amino)-1-(2,6-dichlorophenyl)-1H-pyrazole-3-carboxamide] the IC50 [1] was 10 to 100 nM and the IC50 [2] was 100 to 1000 nM.
Compound `NC(=O)c1nn(-c2c(Cl)cccc2Cl)cc1Nc1ccc(C(=O)N2CCC2)cc1` [compound 92, 4-((4-(azetidine-1-carbonyl)phenyl)amino)-1-(2,6-dichlorophenyl)-1H-pyrazole-3-carboxamide] has an IC50 [1] of 10 to 100 nM and an IC50 [2] of 10 to 100 nM.
For `NC(=O)c1nn(-c2c(Cl)cccc2Cl)cc1Nc1ccc(C(=O)N2CCN(CC(F)(F)F)CC2)cc1` [compound 93, 1-(2,6-dichlorophenyl)-4-((4-(4-(2,2,2-trifluoroethyl)piperazine-1-carbonyl)phenyl)amino)-1H-pyrazole-3-carboxamide], the IC50 [1] was 10 to 100 nM and the IC50 [2] was 100 to 1000 nM.
For `NC(=O)c1nn(-c2c(Cl)cccc2Cl)cc1Nc1ccc(C(=O)N2CCCCCC2)cc1` [compound 95, 4-((4-(azepane-1-carbonyl)phenyl)amino)-1-(2,6-dichlorophenyl)-1H-pyrazole-3-carboxamide], the IC50 [1] was under 10 nM and the IC50 [2] was 100 to 1000 nM.
Compound `NC(=O)c1nn(-c2c(Cl)cccc2Cl)nc1Nc1ccc(-n2ncc3c2CCOC3)cc1` [compound 110, 2-(2,6-Dichloro-phenyl)-5-[4-(6,7-dihydro-4H-pyrano[4,3-c]pyrazol-1-yl)-phenylamino]-2H-[1,2,3]triazole-4-carboxylic acid amide] has an IC50 [1] of 10 to 100 nM and an IC50 [2] of 10 to 100 nM.
Work on `NC(=O)c1nn(-c2c(Cl)cccc2Cl)nc1Nc1ccc(-n2cc3c(n2)CCOC3)cc1` [compound 111, 2-(2,6-Dichloro-phenyl)-5-[4-(6,7-dihydro-4H-pyrano[4,3-c]pyrazol-2-yl)-phenylamino]-2H-[1,2,3]triazole-4-carboxylic acid amide] yielded an IC50 [1] of 100 to 1000 nM and an IC50 [2] of 100 to 1000 nM.
Work on `NC(=O)c1nn(-c2c(Cl)cccc2Cl)nc1Nc1ccc(-c2nc(C(F)(F)F)cn2CCO)cc1` [compound 112, 2-(2,6-dichlorophenyl)-5-((4-(1-(2-hydroxyethyl)-4-(trifluoromethyl)-1H-imidazol-2-yl)phenyl)amino)-2H-1,2,3-triazole-4-carboxamide] yielded an IC50 [1] of under 10 nM and an IC50 [2] of under 10 nM.
With `Cn1cc(C(F)(F)F)nc1-c1ccc(Nc2nn(-c3c(Cl)cccc3Cl)nc2C(N)=O)cc1` [compound 115, 2-(2,6-dichlorophenyl)-5-((4-(1-methyl-4-(trifluoromethyl)-1H-imidazol-2-yl)phenyl)amino)-2H-1,2,3-triazole-4-carboxamide] the IC50 [1] was 10 to 100 nM and the IC50 [2] was 100 to 1000 nM.
Compound `COCCn1cc(C(F)(F)F)nc1-c1ccc(Nc2nn(-c3c(Cl)cccc3Cl)nc2C(N)=O)cc1` [compound 118, 2-(2,6-dichlorophenyl)-5-((4-(1-(2-methoxyethyl)-4-(trifluoromethyl)-1H-imidazol-2-yl)phenyl)amino)-2H-1,2,3-triazole-4-carboxamide] has an IC50 [1] of 100 to 1000 nM and an IC50 [2] of 10 to 100 nM.
`COCCNC(=O)c1ccc(Nc2nn(-c3c(Cl)cccc3Cl)nc2C(N)=O)cc1` [compound 123, 2-(2,6-dichlorophenyl)-5-((4-((2-methoxyethyl)carbamoyl)phenyl)amino)-2H-1,2,3-triazole-4-carboxamide] was tested, and the IC50 [1] was 10 to 100 nM and the IC50 [2] was under 10 nM.
In the case of `CC(C)n1cnnc1-c1ccc(Nc2nn(-c3c(Cl)cccc3Cl)nc2C(N)=O)cc1` [compound 125, 2-(2,6-dichlorophenyl)-5-((4-(4-isopropyl-4H-1,2,4-triazol-3-yl)phenyl)amino)-2H-1,2,3-triazole-4-carboxamide], the IC50 [1] is reported as 10 to 100 nM and the IC50 [2] is reported as 10 to 100 nM.
Compound `CCc1cnnn1-c1ccc(Nc2nn(-c3c(Cl)cccc3Cl)nc2C(N)=O)cc1` [compound 126, 2-(2,6-dichlorophenyl)-5-((4-(5-ethyl-1H-1,2,3-triazol-1-yl)phenyl)amino)-2H-1,2,3-triazole-4-carboxamide] has an IC50 [1] of 10 to 100 nM and an IC50 [2] of under 10 nM.
`CN1CCN(C(=O)c2ccc(Nc3nn(-c4c(Cl)cccc4Cl)nc3C(N)=O)nc2)CC1` [compound 127, 2-(2,6-dichlorophenyl)-5-((5-(4-methylpiperazine-1-carbonyl)pyridin-2-yl)amino)-2H-1,2,3-triazole-4-carboxamide] gave an IC50 [1] of 100 to 1000 nM and an IC50 [2] of 100 to 1000 nM.
`NC(=O)c1nn(-c2c(Cl)cccc2Cl)nc1Nc1ccc(C(=O)NCCF)cc1` [compound 128, 2-(2,6-dichlorophenyl)-5-((4-((2-fluoroethyl)carbamoyl)phenyl)amino)-2H-1,2,3-triazole-4-carboxamide] gave an IC50 [1] of under 10 nM and an IC50 [2] of under 10 nM.
`NC(=O)c1nn(-c2c(Cl)cccc2Cl)nc1Nc1ccc(C(=O)N2CC(F)(F)C(F)(F)C2)cn1` [compound 132, 2-(2,6-dichlorophenyl)-5-((5-(3,3,4,4-tetrafluoropyrrolidine-1-carbonyl)pyridin-2-yl)amino)-2H-1,2,3-triazole-4-carboxamide] showed an IC50 [1] of 100 to 1000 nM and an IC50 [2] of 100 to 1000 nM.
`CN(C)[C@@H]1CCN(C(=O)c2ccc(Nc3nn(-c4c(Cl)cccc4Cl)nc3C(N)=O)nc2)C1` [compound 133, (R)-2-(2,6-dichlorophenyl)-5-((5-(3-(dimethylamino)pyrrolidine-1-carbonyl)pyridin-2-yl)amino)-2H-1,2,3-triazole-4-carboxamide] showed an IC50 [1] of 100 to 1000 nM and an IC50 [2] of 10 to 100 nM.
Compound `Cc1nnnn1-c1ccc(Nc2nn(-c3c(Cl)cccc3Cl)nc2C(N)=O)nc1` [compound 134, 2-(2,6-dichlorophenyl)-5-((5-(5-methyl-1H-tetrazol-1-yl)pyridin-2-yl)amino)-2H-1,2,3-triazole-4-carboxamide] has an IC50 [1] of 10 to 100 nM and an IC50 [2] of 10 to 100 nM.
With `NC(=O)c1nn(-c2c(Cl)cccc2Cl)nc1Nc1ccc(C(=O)N2CC(F)C2)cn1` [compound 135, 2-(2,6-dichlorophenyl)-5-((5-(3-fluoroazetidine-1-carbonyl)pyridin-2-yl)amino)-2H-1,2,3-triazole-4-carboxamide] the IC50 [1] was 10 to 100 nM and the IC50 [2] was 10 to 100 nM.
`NC(=O)c1nn(-c2c(Cl)cccc2Cl)nc1Nc1ccc(C(=O)N2CCCC2)cn1` [compound 137, 2-(2,6-dichlorophenyl)-5-((5-(pyrrolidine-1-carbonyl)pyridin-2-yl)amino)-2H-1,2,3-triazole-4-carboxamide] showed an IC50 [1] of 10 to 100 nM and an IC50 [2] of 10 to 100 nM.
`Cc1cccc2nnc(-c3ccc(Nc4nn(-c5c(Cl)cccc5Cl)nc4C(N)=O)cn3)n12` [compound 139, 2-(2,6-dichlorophenyl)-5-((6-(5-methyl-[1,2,4]triazolo[4,3-a]pyridin-3-yl)pyridin-3-yl)amino)-2H-1,2,3-triazole-4-carboxamide] was tested, and the IC50 [1] was 100 to 1000 nM and the IC50 [2] was 10 to 100 nM.
`NC(=O)c1nn(-c2c(Cl)cccc2Cl)nc1Nc1ccc(C(=O)N2CCOCC2)cn1` [compound 140, 2-(2,6-dichlorophenyl)-5-((5-(morpholine-4-carbonyl)pyridin-2-yl)amino)-2H-1,2,3-triazole-4-carboxamide] showed an IC50 [1] of 10 to 100 nM and an IC50 [2] of 100 to 1000 nM.
`Cc1cnnn1-c1ccc(Nc2nn(-c3c(Cl)cccc3Cl)nc2C(N)=O)nc1` [compound 141, 2-(2,6-dichlorophenyl)-5-((5-(5-methyl-1H-1,2,3-triazol-1-yl)pyridin-2-yl)amino)-2H-1,2,3-triazole-4-carboxamide] showed an IC50 [1] of 10 to 100 nM and an IC50 [2] of 10 to 100 nM.
Work on `CCn1ncnc1-c1ccc(Nc2nn(-c3c(Cl)cccc3Cl)nc2C(N)=O)nc1` [compound 142, 2-(2,6-dichlorophenyl)-5-((5-(1-ethyl-1H-1,2,4-triazol-5-yl)pyridin-2-yl)amino)-2H-1,2,3-triazole-4-carboxamide] yielded an IC50 [1] of 100 to 1000 nM and an IC50 [2] of 10 to 100 nM.

— US20230373985A1 (Origenis Gmbh, priority 2020, published 2023)
